For experiment [1], the system named is PMM (Primary Mouse Macrophages). The experiment is described as follows: Cytotoxicity on primary peritoneal mouse macrophages. The class given is cell-based. Conditions: Mus musculus, Macrophage. An outline of the steps: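 Host cells were peritoneal macrophages from Swiss mice, harvested after 2 days of starch stimulation and kept in RPMI-1640 with 5% FCS at 37 °C, 5% CO2. Compounds were tested in 4-fold dilutions from 64 μM, with final DMSO below 1%.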

For experiment [2], the target named is T1, PPARgamma (Homo sapiens, UniProt P37231).
T1 sequence (P37231 1-505): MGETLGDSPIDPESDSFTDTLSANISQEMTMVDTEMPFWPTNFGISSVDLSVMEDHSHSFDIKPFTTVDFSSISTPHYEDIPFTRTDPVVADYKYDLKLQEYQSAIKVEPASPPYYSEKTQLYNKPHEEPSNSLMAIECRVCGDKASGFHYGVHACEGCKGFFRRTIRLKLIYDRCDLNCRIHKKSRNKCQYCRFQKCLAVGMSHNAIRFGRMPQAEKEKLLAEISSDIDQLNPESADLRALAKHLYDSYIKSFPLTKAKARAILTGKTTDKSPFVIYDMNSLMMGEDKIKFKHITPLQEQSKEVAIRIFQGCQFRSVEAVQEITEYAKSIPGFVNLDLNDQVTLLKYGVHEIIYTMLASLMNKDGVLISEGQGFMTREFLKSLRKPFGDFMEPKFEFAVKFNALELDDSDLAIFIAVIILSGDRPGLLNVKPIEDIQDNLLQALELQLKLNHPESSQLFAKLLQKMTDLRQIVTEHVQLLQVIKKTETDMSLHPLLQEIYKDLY
The experiment is described as follows: Bioprofiling 6pt Ag PPARgamma. The class given is biochemical. Conditions: agonist readout. The procedure:
(§1) The compounds were evaluated across a panel of 20 liability targets (37 functional assays) which included functional cell-based GPCRs and ion channels in both agonist and antagonist readout, measuring calcium flux and biochemical functional assays for nuclear hormone receptors and phosphodiesterases using TR-FRET format, in a 6 point 1:3 dilution dose series (maximum final concentration of 10 μM).

Experiment [3] concerns Leishmania infantum MHOM/MA(BE)/67/ITMAP263 amastigotes. The experiment is described as follows: L. infantum intracellular amastigote assay in PMM. Conditions: for SI: selectivity index (CC50 / IC50): CC50 / L. infantum IC50; for IC50: read-out: L. infantum IC50. The class given is cell-based. An outline of the steps:
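Mouse peritoneal macrophages infected with hamster spleen-derived amastigotes (2 h, 37°C), then exposed to 4-fold dilutions from 64 μM (DMSO <1%) for 5 days at 37°C, 5% CO2. Burden scored microscopically after Giemsa staining as percent reduction vs untreated wells; IC50 as geometric mean of ≥2 experiments.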

For experiment [4], the target named is T2, Opioid mu (Homo sapiens, UniProt P35372).
T2 construct: expressed in transfected cells; host or cells: CHO
T2 sequence (P35372 whole entry): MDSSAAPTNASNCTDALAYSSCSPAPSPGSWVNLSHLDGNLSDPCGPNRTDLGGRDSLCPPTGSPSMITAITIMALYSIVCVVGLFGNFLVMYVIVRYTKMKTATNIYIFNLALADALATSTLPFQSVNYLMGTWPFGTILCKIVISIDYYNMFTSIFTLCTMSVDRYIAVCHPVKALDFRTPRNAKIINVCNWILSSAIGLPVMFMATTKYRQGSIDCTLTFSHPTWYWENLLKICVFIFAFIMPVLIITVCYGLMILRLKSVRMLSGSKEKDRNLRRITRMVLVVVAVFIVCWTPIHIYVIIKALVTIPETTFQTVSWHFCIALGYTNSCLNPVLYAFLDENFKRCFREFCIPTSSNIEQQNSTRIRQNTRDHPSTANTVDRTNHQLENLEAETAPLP
Kind of experiment: Bioprofiling 6pt Antag Opioid mu CHO. The class given is cell-based. Conditions: antagonist readout vs DAMGO. The procedure: as §1

Experiment [5] deals with T3, H1 (Homo sapiens, UniProt P35367).
T3 construct: expressed in transfected cells; host or cells: CHO
T3 sequence (P35367 whole entry): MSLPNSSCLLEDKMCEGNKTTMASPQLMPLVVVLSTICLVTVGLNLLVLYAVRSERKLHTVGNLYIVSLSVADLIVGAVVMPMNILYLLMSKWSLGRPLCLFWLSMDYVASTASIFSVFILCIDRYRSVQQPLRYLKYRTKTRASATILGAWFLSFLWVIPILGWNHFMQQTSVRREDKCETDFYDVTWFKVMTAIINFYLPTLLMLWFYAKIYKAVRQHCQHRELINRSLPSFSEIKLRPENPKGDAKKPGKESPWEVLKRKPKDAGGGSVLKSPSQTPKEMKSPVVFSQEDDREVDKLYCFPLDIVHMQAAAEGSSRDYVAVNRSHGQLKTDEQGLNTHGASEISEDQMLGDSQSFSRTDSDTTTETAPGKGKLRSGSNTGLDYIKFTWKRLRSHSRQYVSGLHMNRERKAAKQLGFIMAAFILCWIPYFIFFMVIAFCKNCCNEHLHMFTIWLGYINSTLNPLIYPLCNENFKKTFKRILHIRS
Kind of experiment: Bioprofiling 6pt Antag H1 CHO. The class given is cell-based. Conditions: antagonist readout vs Histamine. The procedure:
as §1

Experiment [6] deals with T4, B2 (Homo sapiens, UniProt P30411).
T4 construct: expressed in transfected cells; host or cells: CHO
T4 sequence (P30411 1-391): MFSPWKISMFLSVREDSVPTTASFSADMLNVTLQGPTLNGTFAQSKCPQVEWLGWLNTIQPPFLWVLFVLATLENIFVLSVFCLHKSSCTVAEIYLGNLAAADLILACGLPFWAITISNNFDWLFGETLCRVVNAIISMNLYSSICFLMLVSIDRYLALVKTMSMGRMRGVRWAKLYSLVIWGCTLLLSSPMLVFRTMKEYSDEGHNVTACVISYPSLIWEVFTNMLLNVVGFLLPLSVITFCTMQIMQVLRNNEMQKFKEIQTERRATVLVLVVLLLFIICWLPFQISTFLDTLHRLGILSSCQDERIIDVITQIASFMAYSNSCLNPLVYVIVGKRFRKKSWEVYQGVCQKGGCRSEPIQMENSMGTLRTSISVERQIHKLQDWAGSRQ
The experiment is described as follows: Bioprofiling 6pt Ag B2 CHO. It is filed as cell-based. Conditions: agonist readout. The procedure: as §1

For experiment [7], the target named is T5, A1 (Homo sapiens, UniProt P30542).
T5 construct: expressed in transfected cells; host or cells: CHO
T5 sequence (P30542 1-326): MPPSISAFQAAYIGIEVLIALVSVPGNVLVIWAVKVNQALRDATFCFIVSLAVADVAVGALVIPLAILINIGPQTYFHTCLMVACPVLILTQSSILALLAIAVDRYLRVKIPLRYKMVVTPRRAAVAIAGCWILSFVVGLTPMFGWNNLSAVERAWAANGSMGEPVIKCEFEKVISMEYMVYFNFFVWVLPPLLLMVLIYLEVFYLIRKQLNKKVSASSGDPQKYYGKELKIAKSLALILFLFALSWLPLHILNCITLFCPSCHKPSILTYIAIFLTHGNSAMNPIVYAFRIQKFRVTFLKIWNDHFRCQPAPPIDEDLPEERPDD
The experiment is described as follows: Bioprofiling 6pt Ag A1 CHO. The class given is cell-based. Conditions: agonist readout. The procedure: as §1

Experiment [8] has as its target T6, 5-HT1A (Homo sapiens, UniProt P08908).
T6 construct: expressed in transfected cells; host or cells: CHO
T6 sequence (P08908 1-422): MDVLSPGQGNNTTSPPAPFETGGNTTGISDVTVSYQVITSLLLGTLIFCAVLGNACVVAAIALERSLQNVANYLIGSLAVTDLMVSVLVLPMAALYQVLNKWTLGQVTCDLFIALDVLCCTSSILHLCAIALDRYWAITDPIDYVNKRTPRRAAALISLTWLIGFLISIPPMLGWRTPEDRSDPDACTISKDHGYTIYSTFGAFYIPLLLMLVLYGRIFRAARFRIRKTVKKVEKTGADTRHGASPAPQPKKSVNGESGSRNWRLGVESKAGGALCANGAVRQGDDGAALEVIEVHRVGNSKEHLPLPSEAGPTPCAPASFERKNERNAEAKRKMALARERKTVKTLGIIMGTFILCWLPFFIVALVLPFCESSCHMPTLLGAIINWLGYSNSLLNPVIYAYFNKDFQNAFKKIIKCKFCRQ
The experiment is described as follows: Bioprofiling 6pt Antag 5-HT1A CHO. It is filed as cell-based. The conditions noted are these: antagonist readout vs 5-Carboxytryptamine (5-CT). The procedure:
as §1

Experiment [9] has as its target PDE4B2 (Homo sapiens, UniProt Q07343). The experiment is described as follows: Bioprofiling 6pt Antag PDE4B2. It is filed as biochemical. Conditions: substrate cAMP. The procedure:
as §1

Setting [10] is: read-out: IC-50 PMM (Primary Mouse Macrophages).
The mark [11] stands for this setting: Leishmania infantum, 120 h, intracellular amastigotes in PMM, 5 days.

Where two headings read alike, the source gives them in different places.

PDE4B2, sequence (Q07343 1-564 isoform Q07343-2): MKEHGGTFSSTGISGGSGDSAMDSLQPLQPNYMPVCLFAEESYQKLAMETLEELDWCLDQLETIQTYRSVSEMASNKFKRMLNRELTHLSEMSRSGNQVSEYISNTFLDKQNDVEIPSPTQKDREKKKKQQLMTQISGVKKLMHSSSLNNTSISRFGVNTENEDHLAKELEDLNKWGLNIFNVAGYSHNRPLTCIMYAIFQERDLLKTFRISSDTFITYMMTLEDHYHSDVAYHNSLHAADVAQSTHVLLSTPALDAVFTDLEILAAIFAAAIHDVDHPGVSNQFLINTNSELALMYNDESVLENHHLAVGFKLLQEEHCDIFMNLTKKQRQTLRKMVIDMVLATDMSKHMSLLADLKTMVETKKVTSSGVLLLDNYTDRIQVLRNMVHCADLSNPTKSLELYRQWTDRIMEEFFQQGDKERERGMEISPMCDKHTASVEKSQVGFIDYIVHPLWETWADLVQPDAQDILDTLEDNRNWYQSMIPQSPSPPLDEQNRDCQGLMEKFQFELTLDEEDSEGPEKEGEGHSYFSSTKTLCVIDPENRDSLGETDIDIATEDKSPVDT

Take `Cn1nccc1C(=O)Nc1nc2ccc(C#N)cc2n1CC(C)(C)C` [Compound 29, O=C(Nc1n(CC(C)(C)C)c(c2n1)cc(C#N)cc2)c3n(C)ncc3]: the IC50 in [1] (setting [10]) was 49.3 µM; in [1] (read-out: PMM IC50), 27.4 µM; in [3] (setting [11]), 4.1 µM; in experiment [3] (Leishmania infantum, S1 Data) it was 4.12 µM; in experiment [4], over 10 µM; in experiment [5], over 10 µM. For the same compound, the IC50 in experiment [8] and in experiment [9] was over 10 µM throughout. Also, the EC50 in [2], in experiment [6] and in experiment [7] was over 10 µM in each case. In addition, in [3], the “SI: selectivity index (CC50 / IC50)” value is on record as 7.
Consider `Cn1nc(C(F)(F)F)cc1C(=O)Nc1nc2ccc(C#N)cc2n1CC(F)(F)F` [Compound 39, O=C(c1cc(C(F)(F)F)nn1C)Nc2nc(ccc(C#N)c3)c3n2CC(F)(F)F], for which the IC50 in [1] (setting [10]) is 34.3 µM; in experiment [1] (read-out: PMM IC50), 1.26 µM; in [3] (setting [11]), 0.5 µM; in [3] (intracellular amastigotes in PMM, 5 days) it was 0.53 µM; in [4] it was over 10 µM; in experiment [5], over 10 µM. Moreover, the IC50 in experiment [8] and in [9] was over 10 µM each time. The EC50 in experiment [2], in [6] and in experiment [7] was over 10 µM in each case. Moreover, the “SI: selectivity index (CC50 / IC50)” value in experiment [3] is 2. Also, the “potency compared to initial hit 1” value in experiment [3] (L. infantum IC50) is recorded as 10 to 20 fold. Moreover, the “potency compared to parent compound 30” value in experiment [3] (L. infantum IC50) is recorded as 4 fold.
Consider `N#Cc1ccc2nc(NC(=O)c3ccnc(C(F)(F)F)c3)n(CC(F)(F)F)c2c1` [Compound 44, O=C(c1ccnc(C(F)(F)F)c1)Nc2nc(ccc(C#N)c3)c3n2CC(F)(F)F], for which the IC50 in experiment [1] (read-out: PMM IC50) was 4 µM; in [3] (setting [11]), 0.84 µM; in experiment [4], over 10 µM; in [5] it was over 10 µM; in experiment [8] it was over 10 µM; in experiment [9], over 10 µM. The EC50 in [2], in [6] and in [7] was over 10 µM in each case. In addition, the “SI: selectivity index (CC50 / IC50)” value in experiment [3] worked out at 5. The “potency compared to initial hit 1” value in experiment [3] (L. infantum IC50) was 10 to 20 fold.
In the case of `COc1ccc(C(=O)Nc2nc3ccc(C#N)cc3n2CC(F)(F)F)cn1` [Compound 43, O=C(c1ccc(OC)nc1)Nc2nc(ccc(C#N)c3)c3n2CC(F)(F)F], the IC50 in experiment [1] (read-out: PMM IC50) was 32 µM; in [3] (setting [11]), 7 µM; in experiment [3] (Leishmania infantum, S1 Data), 6.95 µM; in experiment [4], over 10 µM; in experiment [5] it was over 10 µM; in experiment [8], over 10 µM. In experiment [9], this compound gave an IC50 of over 10 µM. Besides, the EC50 in [2], in experiment [6] and in experiment [7] was over 10 µM in each case. In addition, the “SI: selectivity index (CC50 / IC50)” value in experiment [3] turned out to be 5.
`N#Cc1ccc2nc(NC(=O)c3ccc(C(F)(F)F)nc3)n(CC(F)(F)F)c2c1` [Compound 45, O=C(c1ccc(C(F)(F)F)nc1)Nc2nc(ccc(C#N)c3)c3n2CC(F)(F)F]: the IC50 in experiment [1] (read-out: PMM IC50) was 8 µM; in experiment [3] (setting [11]) it was 4.3 µM; in [3] (Leishmania infantum, S1 Data), 4.28 µM; in [4], over 10 µM; in experiment [5] it was over 10 µM; in experiment [8] it was over 10 µM. Moreover, in experiment [9], the IC50 is over 10 µM. Also, the EC50 in [2], in [6] and in experiment [7] was over 10 µM throughout. Also, the “SI: selectivity index (CC50 / IC50)” value in experiment [3] was found to be 2.
Regarding `Cn1nccc1C(=O)Nc1nc2ccc(C#N)cc2n1CC(F)(F)F` [Compound 30, O=C(c1ccnn1C)Nc2nc(ccc(C#N)c3)c3n2CC(F)(F)F], the IC50 in [1] (read-out: PMM IC50) was 32 µM; in [3] (setting [11]), 2.2 µM; in [3] (Leishmania infantum, S1 Data) it was 2.22 µM; in [4], over 10 µM; in [5], over 10 µM; in experiment [8], over 10 µM. Moreover, in [9], the IC50 is over 10 µM. The EC50 in [2], in experiment [6] and in experiment [7] was over 10 µM each time. The “SI: selectivity index (CC50 / IC50)” value in [3] is 14.

In general, EC50 refers to the concentration that produces a half-maximal response. Higher therefore signals a need for much substance.

For the origin of these results see paper PMC7932521, “2-aminobenzimidazoles for leishmaniasis: From initial hit discovery to in vivo profiling” (PLoS Neglected Tropical Diseases, 2021).
